Results taken from ChEMBL document CHEMBL5537118, “Synthesis of cinnamoyl tethered indoline derivatives with anti-inflammatory and antioxidant activities” (Eur J Med Chem, 2024).
Activity calls are given as the source filed them. No cut-off for these calls is given here.

Legend:
[1] = Cytotoxicity against mouse RAW264.7 cells assessed as cell viability at 2 to 10 uM measured after 24 hrs; format: toxicity, cell-based; details: dose 2-10 µM, read-out: Activity
[2] = test system: RAW264.7; assay: Antiinflammatory activity in LPS-induced mouse RAW264.7 cells assessed as inhibition of NO production at 2 to 10 uM pretreated for 1 hr followed by LPS addition and measured after 24 hrs by griess reagent based assay; format: functional, cell-based; details: dose 2-10 µM, time 25.0 hrs
[3] = test system: RAW264.7; assay: Antioxidant activity in H2O2-stimulated mouse RAW264.7 cells assessed as protection against cell damage at 2 to 5 uM pretreated for 30 mins followed by H2O2 stimulation and measured after 4 hrs by MTT assay; format: functional, cell-based; details: dose 2-5 µM, time 4.5 hrs
[4] = test system: RAW264.7; assay: Antiinflammatory activity in LPS-induced mouse RAW264.7 cells assessed as inhibition of NO production pretreated for 1 hr followed by LPS addition and measured after 24 hrs by griess reagent based assay; format: functional, cell-based
[5] = test system: Mus musculus; assay: Antiinflammatory activity in carrageenan-induced Kunming mouse model of paw edema assessed as paw volume at 30 mg/kg, IG pretreated for 1 hr followed by carrageenan administration and measured after 3 hrs by digital plethysmometer (reference value: 0.365 +/- 0.044 mL); format: functional; details: time 4 hrs
[6] = test system: Mus musculus; assay: Antiinflammatory activity in carrageenan-induced Kunming mouse model of paw edema assessed as paw volume at 30 mg/kg, ip pretreated for 1 hr followed by carrageenan administration and measured after 1 hr by digital plethysmometer (reference value: 0.395 +/- 0.017 mL); format: functional; details: time 2 hrs
[7] = test system: Mus musculus; assay: Antiinflammatory activity in carrageenan-induced Kunming mouse model of paw edema assessed as edema inhibition at 30 mg/kg, IG pretreated for 1 hr followed by carrageenan administration and measured after 5 hrs relative to control; format: functional; details: po, time 6 hrs
[8] = test system: Mus musculus; assay: Antiinflammatory activity in carrageenan-induced Kunming mouse model of paw edema assessed as paw volume at 30 mg/kg, IG pretreated for 1 hr followed by carrageenan administration and measured after 5 hrs by digital plethysmometer (reference value: 0.353 +/- 0.024 mL); format: functional; details: time 6 hrs
[9] = test system: Mus musculus; assay: Antiinflammatory activity in carrageenan-induced Kunming mouse model of paw edema assessed as edema inhibition at 30 mg/kg, ip pretreated for 1 hr followed by carrageenan administration and measured after 3 hrs relative to control; format: functional; details: time 4 hrs
[10] = test system: Mus musculus; assay: Antiinflammatory activity in carrageenan-induced Kunming mouse model of paw edema assessed as edema inhibition at 30 mg/kg, IG pretreated for 1 hr followed by carrageenan administration and measured after 1 hr relative to control; format: functional; details: po, time 2 hrs
[11] = test system: Mus musculus; assay: Antiinflammatory activity in carrageenan-induced Kunming mouse model of paw edema assessed as edema inhibition at 30 mg/kg, ip pretreated for 1 hr followed by carrageenan administration and measured after 1 hr relative to control; format: functional; details: time 2 hrs
[12] = test system: Mus musculus; assay: Antiinflammatory activity in carrageenan-induced Kunming mouse model of paw edema assessed as paw volume at 30 mg/kg, ip pretreated for 1 hr followed by carrageenan administration and measured immediately by digital plethysmometer (reference value: 0.116 +/- 0.042 mL); format: functional
[13] = test system: Mus musculus; assay: Antiinflammatory activity in carrageenan-induced Kunming mouse model of paw edema assessed as paw volume at 30 mg/kg, ip pretreated for 1 hr followed by carrageenan administration and measured after 3 hrs by digital plethysmometer (reference value: 0.377 +/- 0.018 mL); format: functional; details: time 4 hrs
[14] = test system: Mus musculus; assay: Antiinflammatory activity in carrageenan-induced Kunming mouse model of paw edema assessed as edema inhibition at 30 mg/kg, IG pretreated for 1 hr followed by carrageenan administration and measured after 3 hrs relative to control; format: functional; details: po, time 4 hrs
[15] = test system: Mus musculus; assay: Antiinflammatory activity in carrageenan-induced Kunming mouse model of paw edema assessed as edema inhibition at 30 mg/kg, ip pretreated for 1 hr followed by carrageenan administration and measured after 5 hrs relative to control; format: functional; details: time 6 hrs
[16] = test system: Mus musculus; assay: Antiinflammatory activity in carrageenan-induced Kunming mouse model of paw edema assessed as paw volume at 30 mg/kg, ip pretreated for 1 hr followed by carrageenan administration and measured after 5 hrs by digital plethysmometer (reference value: 0.362 +/- 0.016 mL); format: functional; details: time 6 hrs
[17] = test system: Mus musculus; assay: Antiinflammatory activity in carrageenan-induced Kunming mouse model of paw edema assessed as paw volume at 30 mg/kg, IG pretreated for 1 hr followed by carrageenan administration and measured after 1 hr by digital plethysmometer (reference value: 0.407 +/- 0.023 mL); format: functional; details: time 2 hrs
[18] = test system: Mus musculus; assay: Antiinflammatory activity in carrageenan-induced Kunming mouse model of paw edema assessed as paw volume at 30 mg/kg, IG pretreated for 1 hr followed by carrageenan administration and measured immediately by digital plethysmometer (reference value: 0.144 +/- 0.026 mL); format: functional

Compound | viability at 24 h, 10 µM [1] [%] | Activity [2] | Activity [3] | further results
O=C(/C=C/c1ccccc1)NCCCN1CCc2cc(Cl)ccc21 | > 85 | – | – | –
COc1ccc2c(c1)CCN2CCCNC(=O)/C=C/c1cc(OC)c(O)c(OC)c1 | > 85 | – | – | –
COc1ccc2c(c1)CCN2CCCNC(=O)/C=C/c1cc(OC)c(OC)c(OC)c1 | > 85 | Active | inactive | IC50 [4]: 4.43 µM
COc1ccc2c(c1)CCN2CCCNC(=O)/C=C/c1ccc(O)c(O)c1 | > 85 | Active | Active | IC50 [4]: 2.07 µM
CC(=O)Oc1ccc(/C=C/C(=O)NCCCN2CCc3cc(Cl)ccc32)cc1OC(C)=O | – | – | – | Activity [5]: 0.258 mL; Activity [6]: 0.329 mL; inhibition in vivo at 30 mg/kg [7]: 65.9%; Activity [8]: 0.21 mL; inhibition in vivo at 30 mg/kg [9]: 56.1%; inhibition in vivo at 30 mg/kg [10]: 29.6%; inhibition in vivo at 30 mg/kg [11]: 24.3%; Activity [12]: 0.142 mL; Activity [13]: 0.24 mL; inhibition in vivo at 30 mg/kg [14]: 43.9%; inhibition in vivo at 30 mg/kg [15]: 64%; Activity [16]: 0.209 mL; Activity [17]: 0.325 mL; Activity [18]: 0.136 mL
COc1ccc2c(c1)CCN2CCCNC(=O)/C=C/c1cc(C(C)(C)C)c(O)c(C(C)(C)C)c1 | > 85 | – | – | –
O=C(/C=C/c1ccc(O)cc1)NCCCN1CCc2cc(Cl)ccc21 | > 85 | Active | Active | IC50 [4]: 4.07 µM
COc1cc(/C=C/C(=O)NCCCN2CCc3ccccc32)cc(OC)c1OC | > 85 | Active | inactive | IC50 [4]: 3.9 µM
O=C(/C=C/c1ccc(O)c(O)c1)NCCCN1CCc2ccccc21 | > 85 | Active | Active | IC50 [4]: 1.9 µM
COc1cc(/C=C/C(=O)NCCCN2CCc3cc(Cl)ccc32)cc(OC)c1OC | > 85 | Active | inactive | IC50 [4]: 3.54 µM
COc1ccc2c(c1)CCN2CCCNC(=O)/C=C/c1ccc(O)c(Cl)c1 | > 85 | Active | Active | –
O=C(/C=C/c1cccc(O)c1)NCCCN1CCc2cc(Cl)ccc21 | > 85 | inactive | – | –
O=C(/C=C/c1ccc(O)c([N+](=O)[O-])c1)NCCCN1CCc2cc(Cl)ccc21 | > 85 | – | – | –
COc1ccc2c(c1)CCN2CCCNC(=O)/C=C/c1ccc(O)c(OC)c1 | > 85 | – | – | –
O=C(/C=C/c1ccc(O)c([N+](=O)[O-])c1)NCCCN1CCc2ccccc21 | > 85 | – | – | –
O=C(/C=C/c1ccc(O)cc1)NCCCN1CCc2ccccc21 | > 85 | Active | Active | –

Compound | viability at 24 h, 10 µM [1] [%] | Activity [2] | Activity [3] | further results
COc1ccc2c(c1)CCN2CCCNC(=O)/C=C/c1ccc(O)c([N+](=O)[O-])c1 | > 85 | – | – | –
COc1cc(/C=C/C(=O)NCCCN2CCc3cc(Cl)ccc32)cc(OC)c1O | > 85 | – | – | –
COc1cc(/C=C/C(=O)NCCCN2CCc3ccccc32)cc(OC)c1O | > 85 | – | – | –
COc1cc(/C=C/C(=O)NCCCN2CCc3cc(Cl)ccc32)ccc1O | > 85 | – | – | IC50 [4]: 5 µM
CC(C)(C)c1cc(/C=C/C(=O)NCCCN2CCc3cc(Cl)ccc32)cc(C(C)(C)C)c1O | > 85 | – | – | –
O=C(/C=C/c1ccccc1)NCCCN1CCc2ccccc21 | > 85 | – | – | –
O=C(/C=C/c1ccc(O)c(Cl)c1)NCCCN1CCc2ccccc21 | > 85 | Active | Active | –
O=C(/C=C/c1ccc(O)c(O)c1)OCCc1ccccc1 [CAFFEIC ACID PHENETHYL ESTER] | – | – | Active | Activity [5]: 0.294 mL; Activity [6]: 0.29 mL; inhibition in vivo at 30 mg/kg [7]: 44.2%; Activity [8]: 0.257 mL; inhibition in vivo at 30 mg/kg [9]: 54.9%; inhibition in vivo at 30 mg/kg [10]: 23.5%; inhibition in vivo at 30 mg/kg [11]: 38.6%; IC50 [4]: 0.39 µM; Activity [12]: 0.128 mL; Activity [13]: 0.243 mL; inhibition in vivo at 30 mg/kg [14]: 29.1%; inhibition in vivo at 30 mg/kg [15]: 69.5%; Activity [16]: 0.196 mL; Activity [17]: 0.342 mL; Activity [18]: 0.125 mL
COc1ccc2c(c1)CCN2CCCNC(=O)/C=C/c1ccccc1 | > 85 | – | – | –
O=C(/C=C/c1cccc(O)c1)NCCCN1CCc2ccccc21 | > 85 | inactive | – | –
COc1cc(/C=C/C(=O)NCCCN2CCc3ccccc32)ccc1O | > 85 | – | – | –
COc1ccc2c(c1)CCN2CCCNC(=O)/C=C/c1cccc(O)c1 | > 85 | inactive | – | –
O=C(/C=C/c1ccc(O)c(Cl)c1)NCCCN1CCc2cc(Cl)ccc21 | > 85 | Active | Active | IC50 [4]: 3.65 µM
CC(C)(C)c1cc(/C=C/C(=O)NCCCN2CCc3ccccc32)cc(C(C)(C)C)c1O | > 85 | – | – | –
COc1ccc2c(c1)CCN2CCCNC(=O)/C=C/c1ccc(O)cc1 | > 85 | Active | Active | –
